From patent US11098072B2, “Alkenyl and beta-substituted phosphonates as antimicrobial agents” (The George Washington University, priority 2017, dated 2021)
Where two headings read alike, the source gives them in different places.

Tests used:
[1] = molecular target: T1, P. falciparum DXR (Plasmodium falciparum, UniProt Q8IKG4); settings: read-out: Pf DXR IC50; Table 2, footnote a: Gießmann et al. 2008; cited from earlier work
T1 sequence (Q8IKG4 73-488): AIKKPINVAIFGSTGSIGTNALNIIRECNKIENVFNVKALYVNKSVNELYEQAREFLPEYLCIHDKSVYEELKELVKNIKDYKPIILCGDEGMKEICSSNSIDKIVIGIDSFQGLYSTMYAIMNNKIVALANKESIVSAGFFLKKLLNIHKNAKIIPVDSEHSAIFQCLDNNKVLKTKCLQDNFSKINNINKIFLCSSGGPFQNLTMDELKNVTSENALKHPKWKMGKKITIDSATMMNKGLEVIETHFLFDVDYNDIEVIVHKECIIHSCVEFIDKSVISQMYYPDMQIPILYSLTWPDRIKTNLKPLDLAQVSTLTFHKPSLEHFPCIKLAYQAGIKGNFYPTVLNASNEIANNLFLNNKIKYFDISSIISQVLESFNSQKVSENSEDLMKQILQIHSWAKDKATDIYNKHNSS

[2] = tested on: P. falciparum; settings: Table 6, footnote b: Edwards et al. 2017; read-out: P.f. IC50; cited from earlier work
[3] = tested on: Mtb; settings: footnote a: Jackson et al. 2014, cited from earlier work
[4] = tested on: P. falciparum; experiment: Growth inhibition against P. falciparum; format: cell-based; settings: Plasmodium falciparum
[5] = tested on: P. falciparum had1 mutant strain; format: cell-based; settings: in words
[6] = tested on: DXR; settings: versus substrate DOXP and cofactor NADPH; cited from earlier work

Compound	IC50 [1] [µM]	IC50 [2] [µM]	Mtb MIC99 Gast/Fe ([3]; minimal media (GAST-Fe))	Mtb MIC99 7H9 ([3]; rich media (7H9))	IC50 ([4]; Table 3, diethyl phosphonate analogs, read-out: P.f. IC50) [mg/L]	IC50 ([4]; Table 4, growth inhibition, read-out: Pf IC50) [µM]	IC50 ([4]; read-out: P. falciparum growth IC50) [µM]	resistance of had1 parasites compared with wild-type [5]	binding mode to DXR [6]
CC(=O)N(O)C/C=C/P(=O)(O)O [Compound 2]	0.018	0.203	150^a μg/mL	>200^a μg/mL	–	–	–	–	–
O=CN(O)CCCP(=O)(O)O [Fosmidomycin, reference compound]	–	–	–	–	0.175	0.854	0.854	resistant	competitively with substrate DOXP and noncompetitively with cofactor NADPH
